According to patent US8802661B2, “C-28 amides of modified C-3 betulinic acid derivatives as HIV maturation inhibitors” (priority 2010, dated 2014):

Each compound was assayed on recombinant NL4-3 virus (Renilla luciferase in nef, Gag P373S) (assay: HIV Cell Culture Assay (luciferase reporter virus in MT-2 cells)). Conditions: NL43, read-out: EC50 Group.
Type: cell-based
Procedure: MT-2 cells and 293T cells were obtained from the NIH AIDS Research and Reference Reagent Program. MT-2 cells were propagated in RPMI 1640 media supplemented with 10% heat inactivated fetal bovine serum, […]. The 293T cells were propagated in DMEM media supplemented with 10% heat inactivated fetal bovine serum (FBS), 100 units/ml penicillin G and 100 μg/ml streptomycin. The proviral DNA clone of NL4-3 was obtained from the NIH AIDS Research and Reference Reagent Program. A recombinant NL4-3 virus, in which a section of the nef gene from NL4-3 was replaced with the Renilla luciferase gene, was used as a reference virus. In addition, residue Gag P373 was converted to P373S. Briefly, the recombinant virus was prepared by transfection of the altered proviral clone of NL4-3. Transfections were performed in 293T cells using LipofectAMINE PLUS from Invitrogen (Carlsbad, Calif.), according to manufacturer's instruction. The virus was titered in MT-2 cells using luciferase enzyme activity as a marker. Luciferase was quantitated using the Dual Luciferase kit from Promega (Madison, Wis.), with modifications to the manufacturer's protocol. The diluted Passive Lysis solution was pre-mixed with the re-suspended Luciferase Assay Reagent and the re-suspended Stop & Glo Substrate (2:1:1 ratio). Fifty (50) μL of the mixture was added to each aspirated well on assay plates and luciferase activity was measured immediately on a Wallac TriLux (Perkin-Elmer). Antiviral activities of inhibitors toward the recombinant virus were quantified by measuring luciferase activity in cells infected for 4-5 days with NLRluc recombinants in the presence serial dilutions of the inhibitor. Table 1 is the key for the data in Table 2.
`C=C(C)[C@@H]1CC[C@]2(C(=O)NCC(O)C(=O)O)CC[C@]3(C)[C@H](CC[C@@H]4[C@@]5(C)CC=C(c6ccc(C(=O)O)cc6)C(C)(C)[C@@H]5CC[C@]43C)[C@@H]12` (stereo partly drawn) [Example 79, 4-((1R,3aS,5aR,5bR,7aR,11aS,11bR,13aR,13bR)-3a-(2-carboxy-2-hydroxyethylcarbamoyl)-5a,5b,8,8,11a-pentamethyl-1-(prop-1-en-2-yl)-2,3,3a,4,5,5a,5b,6,7,7a,8,11,11a,11b,12,13,13a,13b-octadecahydro-1H-cyclopenta[a]chrysen-9-yl)benzoic acid] was tested, and the EC50 was < 100 nM. With `C=C(C)[C@@H]1CC[C@]2(C(=O)NCc3ccncc3)CC[C@]3(C)[C@H](CC[C@@H]4[C@@]5(C)CC=C(c6ccc(C(=O)O)cc6)C(C)(C)[C@@H]5CC[C@]43C)[C@@H]12` [Example 28, 4-((1R,3aS,5aR,5bR,7aR,11aS,11bR,13aR,13bR)-5a,5b,8,8,11a-pentamethyl-1-(prop-1-en-2-yl)-3a-(pyridin-4-ylmethylcarbamoyl)-2,3,3a,4,5,5a,5b,6,7,7a,8,11,11a,11b,12,13,13a,13b-octadecahydro-1H-cyclopenta[a]chrysen-9-yl)benzoic acid] the EC50 was < 100 nM. `C=C(C)[C@@H]1CC[C@]2(C(=O)NCc3ccoc3)CC[C@]3(C)[C@H](CC[C@@H]4[C@@]5(C)CC=C(c6ccc(C(=O)O)cc6)C(C)(C)[C@@H]5CC[C@]43C)[C@@H]12` [Example 126, 4-((1R,3aS,5aR,5bR,7aR,11aS,11bR,13aR,13bR)-3a-(furan-3-ylmethylcarbamoyl)-5a,5b,8,8,11a-pentamethyl-1-(prop-1-en-2-yl)-2,3,3a,4,5,5a,5b,6,7,7a,8,11,11a,11b,12,13,13a,13b-octadecahydro-1H-cyclopenta[a]chrysen-9-yl)benzoic acid] was tested, and the EC50 was < 100 nM. `C=C(C)[C@@H]1CC[C@]2(C(=O)NCCCN)CC[C@]3(C)[C@H](CC[C@@H]4[C@@]5(C)CC=C(c6ccc(C(=O)O)cc6)C(C)(C)[C@@H]5CC[C@]43C)[C@@H]12` [Example 98, 4-((1R,3aS,5aR,5bR,7aR,11aS,11bR,13aR,13bR)-3a-(3-aminopropylcarbamoyl)-5a,5b,8,8,11a-pentamethyl-1-(prop-1-en-2-yl)-2,3,3a,4,5,5a,5b,6,7,7a,8,11,11a,11b,12,13,13a,13b-octadecahydro-1H-cyclopenta[a]chrysen-9-yl)benzoic acid] was tested, and the EC50 was < 100 nM. `C=C(C)[C@@H]1CC[C@]2(C(=O)N[C@@H](C)CN(C)C)CC[C@]3(C)[C@H](CC[C@@H]4[C@@]5(C)CC=C(c6ccc(C(=O)O)cc6)C(C)(C)[C@@H]5CC[C@]43C)[C@@H]12` [Example 68, 4-((1R,3aS,5aR,5bR,7aR,11aS,11bR,13aR,13bR)-3a-((S)-1-(dimethylamino)propan-2-ylcarbamoyl)-5a,5b,8,8,11a-pentamethyl-1-(prop-1-en-2-yl)-2,3,3a,4,5,5a,5b,6,7,7a,8,11,11a,11b,12,13,13a,13b-octadecahydro-1H-cyclopenta[a]chrysen-9-yl)benzoic acid] was tested, and the EC50 was < 100 nM. `C=C(C)[C@@H]1CC[C@]2(C(=O)NCCCN(C)C(C)=O)CC[C@]3(C)[C@H](CC[C@@H]4[C@@]5(C)CC=C(c6ccc(C(=O)O)cc6)C(C)(C)[C@@H]5CC[C@]43C)[C@@H]12` [Example 52, 4-((1R,3aS,5aR,5bR,7aR,11aS,11bR,13aR,13bR)-5a,5b,8,8,11a-pentamethyl-3a-(3-(N-methylacetamido)propylcarbamoyl)-1-(prop-1-en-2-yl)-2,3,3a,4,5,5a,5b,6,7,7a,8,11,11a,11b,12,13,13a,13b-octadecahydro-1H-cyclopenta[a]chrysen-9-yl)benzoic acid] was tested, and the EC50 was < 100 nM. With `C=C(C)[C@@H]1CC[C@]2(C(=O)NCCN(CCC(=O)O)C(C)C)CC[C@]3(C)[C@H](CC[C@@H]4[C@@]5(C)CC=C(c6ccc(C(=O)O)cc6)C(C)(C)[C@@H]5CC[C@]43C)[C@@H]12` [Example 96, 4-((1R,3aS,5aR,5bR,7aR,11aS,11bR,13aR,13bR)-3a-(2-((2-carboxyethyl)(isopropyl)amino)ethylcarbamoyl)-5a,5b,8,8,11a-pentamethyl-1-(prop-1-en-2-yl)-2,3,3a,4,5,5a,5b,6,7,7a,8,11,11a,11b,12,13,13a,13b-octadecahydro-1H-cyclopenta[a]chrysen-9-yl)benzoic acid] the EC50 was < 100 nM. For `C=C(C)[C@@H]1CC[C@]2(C(=O)N3CCC(O)CC3)CC[C@]3(C)[C@H](CC[C@@H]4[C@@]5(C)CC=C(c6ccc(C(=O)OC)cc6)C(C)(C)[C@@H]5CC[C@]43C)[C@@H]12` [Example 21, methyl 4-((1R,3aS,5aR,5bR,7aR,11aS,11bR,13aR,13bR)-3a-(4-hydroxypiperidine-1-carbonyl)-5a,5b,8,8,11a-pentamethyl-1-(prop-1-en-2-yl)-2,3,3a,4,5,5a,5b,6,7,7a,8,11,11a,11b,12,13,13a,13b-octadecahydro-1H-cyclopenta[a]chrysen-9-yl)benzoate], the EC50 was > 100 nM. For `C=C(C)[C@@H]1CC[C@]2(C(=O)NCCNCCC(=O)O)CC[C@]3(C)[C@H](CC[C@@H]4[C@@]5(C)CC=C(c6ccc(C(=O)O)cc6)C(C)(C)[C@@H]5CC[C@]43C)[C@@H]12` [Example 91, 4-((1R,3aS,5aR,5bR,7aR,11aS,11bR,13aR,13bR)-3a-(2-(2-carboxyethylamino)ethylcarbamoyl)-5a,5b,8,8,11a-pentamethyl-1-(prop-1-en-2-yl)-2,3,3a,4,5,5a,5b,6,7,7a,8,11,11a,11b,12,13,13a,13b-octadecahydro-1H-cyclopenta[a]chrysen-9-yl)benzoic acid], the EC50 was < 100 nM. For `C=C(C)[C@@H]1CC[C@]2(C(=O)N3CCCC3C(=O)O)CC[C@]3(C)[C@H](CC[C@@H]4[C@@]5(C)CC=C(c6ccc(C(=O)O)cc6)C(C)(C)[C@@H]5CC[C@]43C)[C@@H]12` (stereo partly drawn) [Example 128, 1-((1R,3aS,5aR,5bR,7aR,11aS,11bR,13aR,13bR)-9-(4-carboxyphenyl)-5a,5b,8,8,11a-pentamethyl-1-(prop-1-en-2-yl)-2,3,3a,4,5,5a,5b,6,7,7a,8,11,11a,11b,12,13,13a,13b-octadecahydro-1H-cyclopenta[a]chrysene-3a-carbonyl)pyrrolidine-2-carboxylic acid], the EC50 was < 100 nM. With `C=C(C)[C@@H]1CC[C@]2(C(=O)N(C)Cc3ccccc3)CC[C@]3(C)[C@H](CC[C@@H]4[C@@]5(C)CC=C(c6ccc(C(=O)O)cc6)C(C)(C)[C@@H]5CC[C@]43C)[C@@H]12` [Example 18, 4-((1R,3aS,5aR,5bR,7aR,11aS,11bR,13aR,13bR)-3a-(benzyl(methyl)carbamoyl)-5a,5b,8,8,11a-pentamethyl-1-(prop-1-en-2-yl)-2,3,3a,4,5,5a,5b,6,7,7a,8,11,11a,11b,12,13,13a,13b-octadecahydro-1H-cyclopenta[a]chrysen-9-yl)benzoic acid] the EC50 was > 100 nM. In the case of `C=C(C)[C@@H]1CC[C@]2(C(=O)NCCN3CCS(=O)(=O)CC3)CC[C@]3(C)[C@H](CC[C@@H]4[C@@]5(C)CC=C(c6ccc(C(=O)O)c(F)c6)C(C)(C)[C@@H]5CC[C@]43C)[C@@H]12` [Example 116, 4-((1R,3aS,5aR,5bR,7aR,11aS,11bR,13aR,13bR)-3a-((2-(1,1-dioxido-4-thiomorpholinyl)ethyl)carbamoyl)-1-isopropenyl-5a,5b,8,8,11a-pentamethyl-2,3,3a,4,5,5a,5b,6,7,7a,8,11,11a,11b,12,13,13a,13b-octadecahydro-1H-cyclopenta[a]chrysen-9-yl)-2-fluorobenzoic acid], the EC50 is reported as < 100 nM. `C=C(C)[C@@H]1CC[C@]2(C(=O)NS(C)(=O)=O)CC[C@]3(C)[C@H](CC[C@@H]4[C@@]5(C)CC=C(c6ccc(C(=O)O)cc6)C(C)(C)[C@@H]5CC[C@]43C)[C@@H]12` [Example 8, 4-((1R,3aS,5aR,5bR,7aR,11aS,11bR,13aR,13bR)-5a,5b,8,8,11a-pentamethyl-3a-(methylsulfonylcarbamoyl)-1-(prop-1-en-2-yl)-2,3,3a,4,5,5a,5b,6,7,7a,8,11,11a,11b,12,13,13a,13b-octadecahydro-1H-cyclopenta[a]chrysen-9-yl)benzoic acid] was tested, and the EC50 was < 100 nM. For `C=C(C)[C@@H]1CC[C@]2(C(=O)NCCN(CC)CC(=O)O)CC[C@]3(C)[C@H](CC[C@@H]4[C@@]5(C)CC=C(c6ccc(C(=O)O)cc6)C(C)(C)[C@@H]5CC[C@]43C)[C@@H]12` [Example 83, 4-((1R,3aS,5aR,5bR,7aR,11aS,11bR,13aR,13bR)-3a-(2-((carboxymethyl)(ethyl)amino)ethylcarbamoyl)-5a,5b,8,8,11a-pentamethyl-1-(prop-1-en-2-yl)-2,3,3a,4,5,5a,5b,6,7,7a,8,11,11a,11b,12,13,13a,13b-octadecahydro-1H-cyclopenta[a]chrysen-9-yl)benzoic acid], the EC50 was < 100 nM.
